Measured values: patent US5340833A, “Urokinase inhibitors” (Eisai Co., Ltd., priority 1992, dated 1994)
Structures can show the parent of a compound that is named as a salt.

Biological target: T1, human high molecular weight urokinase (Homo sapiens, UniProt P00749)
T1 construct: human high molecular weight urokinase; purchased American Diagnostica, Greenwich, Conn
Test: Urokinase Direct Assay
Assay type: biochemical
Details: read-out: uPA Direct: percentage of residual urokinase activity relative to inhibitor-free controls; heading: uPA Direct: percentage of residual urokinase activity relative to inhibitor-free controls; inhibitor concentration of 1 mM
Procedure: (i) A direct chromogenic assay in which urokinase cleaves a synthetic tripeptide p-nitroanilide (pNA) urokinase substrate.
Incubations were carried out at 37° C. for approximately 2 hours or until adequate yellow color developed. Color was quantitated by measuring absorbance at 405 nm (A405) using a Titertek Multiskan MCC/340 MK II microtiter plate spectrophotometer.

Compared with `N=C(N)c1csc2ccccc12` [Compound 316, Benzo[b]thiophene-3-carboxamidine hydrochloride], `Cc1c(C(=N)N)sc2ccccc12` [Compound 304, 3-Methylbenzo[b]thiophene-2-carboxamidine hydrochloride] is lower in residual urokinase activity at 1000 µM: 80% for the first, 75% for the second.

Compared with `C#Cc1ccc2sc(C(=N)N)cc2c1` [Compound 123, 5-(Ethynyl)benzo[b]thiophene-2-carboxamidine hydrochloride], `Cc1ccc2sc(C(=N)N)cc2c1` [Compound 105, 5-Methylbenzo[b]thiophene-2-carboxamidine hydrochloride] is higher in residual urokinase activity at 1000 µM: 2.5% for the first, 3.4% for the second.

Compared with `CCC(C)=Cc1cccc2sc(C(=N)N)cc12` [Compound 21, 4-(E/Z-2-Methylbut-1-enyl)benzo[b]thiophene-2-carboxamidine hydrochloride], `CCC=Cc1cccc2sc(C(=N)N)cc12` [Compound 20, 4-(E/Z-But-1-enyl)benzo[b]thiophene-2-carboxamidine hydrochloride] is lower in residual urokinase activity at 1000 µM: 1.1% for the first, 0.8% for the second.

Compared with `N=C(N)c1cc2cccnc2s1` [Compound 318, Pyrido[2,3-b]thiophene-2-carboxamidine hydrochloride], `N=C(N)c1cc2cc(F)ccc2s1` [Compound 101, 5-Fluorobenzo[b]thiophene-2-carboxamidine hydrochloride] is lower in residual urokinase activity at 1000 µM: 55% for the first, 12.7% for the second.

Compared with `COc1cccc2sc(C(=N)N)cc12` [Compound 57, 4-Methoxybenzo[b]thiophene-2-carboxamidine hydrochloride], `N=C(N)c1cc2c(F)cccc2s1` [Compound 2, 4-Fluorobenzo[b]thiophene-2-carboxamidine hydrochloride] is lower in residual urokinase activity at 1000 µM: 12% for the first, 7.2% for the second.

First: Cc1ccc2cc(C(=N)N)sc2c1 [Compound 303, 6-Methylbenzo[b]thiophene-2-carboxamidine hydrochloride]
Second: CCc1ccc2sc(C(=N)N)cc2c1 [Compound 106, 5 -Ethylbenzo[b]thiophene-2-carboxamidine hydrochloride]
The residual urokinase activity at 1000 µM of the first is higher: 12% for the first, 3.6% for the second.

First: COc1ccc(Br)c2sc(C(=N)N)cc12 [Compound 309, 7-Bromo-4-methoxybenzo[b]thiophene-2-carboxamidine hydrochloride]
Second: Cc1ccc2sc(C(=N)N)cc2c1Br [Compound 202, 4-Bromo-5-methylbenzo[b]thiophene-2-carboxamidine hydrochloride]
The residual urokinase activity at 1000 µM of the first is higher: 18% for the first, 3% for the second.

Going from `N=C(N)c1cc2c(CCC3CC3)cccc2s1` [Compound 14, 4-(2-Cyclopropylethyl)benzo[b]thiophene-2-carboxamidine hydrochloride] to `N=C(N)c1cc2c(Br)cccc2s1` [Compound 4, 4-Bromobenzo[b]thiophene-2-carboxamidine hydrochloride], the residual urokinase activity at 1000 µM rises from 0.54% to 0.8%.

Compared with `N=C(N)c1cc2cc(-c3cccnc3)ccc2s1` [Compound 125, 5-(Pyrid-3-yl)benzo[b]thiophene-2-carboxamidine hydrochloride], `N=C(N)c1cc2c(ccc3ccccc32)s1` [Compound 205, Naphtho[2,1-b]thiophene-2-carboxamidine hydrochloride] is lower in residual urokinase activity at 1000 µM: 3.6% for the first, 0.27% for the second.

Compared with `N=C(N)c1cc2c(Cl)c(I)ccc2s1` [Compound 203, 4-Chloro-5-iodobenzo[b]thiophene-2-carboxamidine hydrochloride], `CC(C)c1cccc2sc(C(=N)N)cc12` [Compound 8, 4-(1-Methylethyl)benzo[b]thiophene-2-carboxamidine hydrochloride] is lower in residual urokinase activity at 1000 µM: 3.5% for the first, 0.9% for the second.

Going from `CC(c1ccccc1)c1cccc2sc(C(=N)N)cc12` (stereo not shown) [Compound 16, 4-(1-Phenylethyl)benzo[b]thiophene-2-carboxamidine hydrochloride] to `N=C(N)c1cc2c(CCc3ccccc3)cccc2s1` [Compound 15, 4-(2-Phenylethyl)benzo[b]thiophene-2-carboxamidine hydrochloride], the residual urokinase activity at 1000 µM falls from 1.4% to 0.35%.

First: CC=Cc1ccc2sc(C(=N)N)cc2c1 [Compound 116, 5-(E/Z-Prop-1-enyl)benzo[b]thiophene-2-carboxamidine hydrochloride]
Second: CC(C)C=Cc1ccc2sc(C(=N)N)cc2c1 [Compound 119, 5-(E/Z-3-Methylbut-1-enyl)benzo[b]thiophene-2-carboxamidine hydrochloride]
The residual urokinase activity at 1000 µM of the first is lower: 1.6% for the first, 4.9% for the second.

First: N=C(N)c1cc2c(/C=C/CCCO)cccc2s1 [Compound 32, 4-(E-5-Hydroxypent-1-enyl)benzo[b]thiophene-2-carboxamidine hydrochloride]
Second: CCCCCCCC/C=C/c1cccc2sc(C(=N)N)cc12 [Compound 31, 4-(E-Dec-1-enyl)benzo[b]thiophene-2-carboxamidine hydrochloride]
The residual urokinase activity at 1000 µM of the first is lower: 0.67% for the first, 5.2% for the second.

Compared with `N=C(N)NC(=O)c1cc2ccccc2s1` [Compound 320, N-Amidino benzo[b]thiophene-2-carboxamide hydrochloride], `N=C(N)c1cc2cc(C=O)ccc2s1` [Compound 130, 5-Formylbenzo[b]thiophene-2-carboxamidine hydrochloride] is lower in residual urokinase activity at 1000 µM: 84% for the first, 6.8% for the second.

Compared with `N=C(N)c1cc2c(N3CCOCC3)cccc2s1` [Compound 62, 4-(1-Morpholino)benzo[b]thiophene-2-carboxamidine hydrochloride], `N=C(N)c1cc2c(C(F)(F)F)cccc2s1` [Compound 54, 4-(Trifluoromethyl)benzo[b]thiophene-2-carboxamidine hydrochloride] is lower in residual urokinase activity at 1000 µM: 3.6% for the first, 2.4% for the second.

Going from `COc1ccc(-c2cccc3sc(C(=N)N)cc23)cc1` [Compound 45, 4-(4-Methoxyphenyl)benzo[b]thiophene-2-carboxamidine hydrochloride] to `CCC(/C=C/c1cccc2sc(C(=N)N)cc12)CC` [Compound 28, 4-(E-3-ethylpent-1-enyl)benzo[b]thiophene-2-carboxamidine hydrochloride], the residual urokinase activity at 1000 µM falls from 6% to 0.46%.

`C=C(C)c1ccc2sc(C(=N)N)cc2c1` [Compound 115, 5-(1-Methylethenyl)benzo[b]thiophene-2-carboxamidine hydrochloride] and `CCC(C)=Cc1ccc2sc(C(=N)N)cc2c1` [Compound 118, 5-(E/Z-2-Methylbut-1-enyl)benzo[b]thiophene-2-carboxamidine hydrochloride] are the same in residual urokinase activity at 1000 µM: 1.2% for the first, 1.2% for the second.

First: CCC(C)Cc1ccc2sc(C(=N)N)cc2c1 (racemic) [Compound 109, 5-([R/S]-2-Methylbutyl)benzo[b]thiophene-2-carboxamidine hydrochloride]
Second: CCCc1ccc2sc(C(=N)N)cc2c1 [Compound 107, 5-Propylbenzo[b]thiophene-2-carboxamidine hydrochloride]
The residual urokinase activity at 1000 µM of the first is higher: 6.6% for the first, 2.6% for the second.

Compound `N=C(N)c1cc2cc(CCO)ccc2s1` [Compound 113, 5-(2-Hydroxyethyl)benzo[b]thiophene-2-carboxamidine hydrochloride] has a residual urokinase activity at 1000 µM of 2.9%.
